The values below come from US9352010B2, “Treatment of HIV-1 infection and AIDS” (The J. David Gladstone Institutes, priority 2011, dated 2016).

pIC50: −log10 of the molar value.

The subject of this assay is HIV-1. The assay can be described thus: microbe, parasite or virus in culture. As for the experimental part: (A and C) Concentrations of T20 that block viral infection. […] One hour before incubation with the virus, cells were pretreated with T20 or left untreated. At 12 hours, cells were washed extensively and cultured under the same conditions. On day 9, the viral concentration was determined using a p24gag FLAQ assay. The amount of p24gag accumulated in the absence of drugs by each viral clone (A) or by SKY (C) was defined as 100%. (B and D) Effect of T20 on indirect killing. CFSE-labeled cells were co-cultured with cells infected with the indicated viral clones in the presence of 5 μM AZT and the indicated concentrations of T20. After 6 days, indirect killing in the mixed cultures was assessed. The number of viable CFSE-positive CD4 T-cells co-cultured with uninfected cells in the presence of AZT was defined as 100% (not shown). To allow successful initial infection the GIA-SKY mutants were pseudotyped with the VSV-G envelope. NL4-3, WT lab-adapted virus; WEAU 16-8, primary virus; SIM, T20-resistant virus; GIA-SKY, T20-dependent virus; GIA and SKY, single-domain mutant viruses. Representative data from three independent experiments with different donors are shown. See also FIG. 5, below.
HLACs were infected with viruses derived from the indicated HIV proviral clones in the presence of the indicated concentrations of AZT or in the absence of drugs. Six days after infection the amount of p24^gag in the medium was determined by FLAQ assay. The amount of p24^gag in the medium after infection wash (day 0) was defined as 0%. […] Viral incorporation of endogenous A3G was measured by immunoblot analysis of purified NL4-3 and Δvif NL4-3 virions harvested from 1 ml of supernatant from infected HLACs. Doses reflect 1:10 dilutions. […] Resting or activated CFSE-labeled cells were co-cultured with cells infected with WT or Δvif NL4-3 in the presence or absence of the following drugs, AZT (5 μM), AMD3100 (250 nM), the NNRTIs Efavirenz (100 nM), and Nevirapine (1 μM), or the integration inhibitors Raltegravir (30 μM) and 118-D-24 (60 μM). Data are representative of four independent experiments performed with cells from four different donors. (E) A method to assess indirect killing in HLAC with non-infectious HIV-1 clones. Fresh human tonsil is processed into HLAC and cells are cultured in suspension. At the same time 293T-cells are transfected with 1 μg HIV-1 DNA in a 24-well plate. After 12 hours, 293T-cells are washed and overlayed with 3×10^6 HLAC cells in RPMI in the presence of the indicated drugs. Virus-producing 293T-cells directly interact with target overlaying HLAC cells. After 24 hours, the HLAC suspensions are collected from wells and analyzed by flow cytometry. […] HLAC were cultured with the indicated drugs 3 hours before co-culture with 293T-cells. Percentages are normalized to the number of viable CD4 T-cells in HLAC overlaying non-transfected 293T-cells in the presence of AZT, as depicted by (*). Error bars represent standard error of the mean of three experiments performed using cells from three different HLAC donors.

In the case of `Cc1cn([C@H]2C[C@H](N=[N+]=[N-])[C@@H](CO)O2)c(=O)[nH]c1=O` [AZT], for the setting “Human immunodeficiency virus 1, in Homo sapiens, read-out: concentration achieving half maximal inhibitory effect”, the pIC50 was 6.30. In addition, the “concentration that blocks viral replication” value (NL4-3-infected and AZT-sensitive clones) worked out at 0.5 µM.

As to enfuvirtide, the “concentration at which inhibition of infection begins” value was more than 2 µg/mL, the “concentration giving complete inhibition of infection” value came out at 0.1 µg/mL, the “concentration required for complete inhibition of infection” value came to 10 µg/mL and the inhibition of infection result is reported as “did not inhibit infection”. Also, the “replication of T20-dependent mutant GIA-SKY” value is listed as “readily replicated”.
